Experimental data taken from patent US7063977B2, “Enzymatic resolution of t-butyl taxane derivatives” (Bristol-Myers Squibb Company, priority 2001, dated 2006).
Where two headings read alike, the source gives them in different places.

What was measured:
tumors in mice = conditions: oral administration; AACR 1999 abstract 1905; cited from earlier work
[1] = up to 160 mg/kg/day, Suffness et al.; cited from earlier work
human tumor xenografts [2] = conditions: oral; xenografts implanted in athymic rates
human tumor xenografts [3] = conditions: oral; xenografts implanted in athymic mice
[4] = oral administration; Eiseman et al., Suffness et al., quoted from WO 98/53811; cited from earlier work
sc M109 = conditions: oral, doses as high as 160 mg/kg/inj; toxic doses not reached; cited from earlier work

| Compound | oral activity against tumors in mice (tumors in mice) | antitumor activity on oral administration [1] | activity of orally administered drug against human tumor xenografts (human tumor xenografts [2]) | activity of orally administered drug against human tumor xenografts (human tumor xenografts [3]) | absorbed when administered orally [4] | efficacy in murine tumor models (sc M109) (sc M109) |
| --- | --- | --- | --- | --- | --- | --- |
| CC(=O)O[C@H]1C(=O)[C@@]2(C)[C@H]([C@H](OC(=O)c3ccccc3)[C@]34OC(=O)O[C@H]3[C@H](OC(=O)[C@H](O)[C@H](CC(C)C)NC(=O)OC(C)(C)C)C(C)=C1C4(C)C)[C@]1(OC(C)=O)CO[C@@H]1C[C@@H]2O [IDN-5109] | oral activity | – | – | – | – | – |
| CC(=O)O[C@H]1C(=O)[C@@]2(C)[C@H]([C@H](OC(=O)c3ccccc3)[C@]3(O)C[C@H](OC(=O)[C@H](O)[C@@H](NC(=O)c4ccccc4)c4ccccc4)C(C)=C1C3(C)C)[C@]1(OC(C)=O)CO[C@@H]1C[C@@H]2O [paclitaxel] | – | no evidence of antitumor activity | unsuccessful | unsuccessful | less than 1% | without signs of any efficacy |
